Structures can show the parent of a compound that is named as a salt. Where two headings read alike, the source gives them in different places.
Key:
[1] = tested on: Mcf-7; assay: In vitro antiproliferative assay (CCK-8); details: read-out: IC50 ± SD Mcf-7
Description: (§1) Hela and MDA-MB-132 cells were grown in DMEM (Gibco) containing 10% FBS and 1% double antibody (penicillin 100 U/mL, streptomycin 100 μg/mL, Solarbio). […] All cell lines were purchased from the Xiangya Cell Bank, Central South University, Changsha, China, and incubated at 37 °C with 5% CO2 in a humidified atmosphere. […] Cytotoxicity assay was assessed using CCK-8 methods. The cells were seeded in a 96-well plate (2 × 10^3–3 × 10^3 cells/well), the 96-well plate was incubated at 37 °C with 5% CO2 in a humidified atmosphere, and the cells were grown in a monolayer; the original culture was discarded. A total of 100 μL of drug-containing medium with a specific concentration gradient was added and then cultivated for 48 h; 10 μL/well of CCK-8 solution was added, put in an incubator, and incubated for 1 h and read with a multi-function microplate reader at a wavelength of 450 nm. The inhibition rate was calculated, and the IC50 results were calculated by GraphPad Prism 7 software. The experiment was repeated three times.

[2] = tested on: Mda-mb-231; assay: In vitro antiproliferative assay (CCK-8); details: read-out: IC50 ± SD Mda-mb-231
Description: as §1

[3] = tested on: Hepg2; assay: In vitro antiproliferative assay (CCK-8); details: read-out: IC50 ± SD Hepg2
Description: as §1

[4] = tested on: Hela; assay: In vitro antiproliferative assay (CCK-8); assay type: cell-based, human; details: CCK-8, 48 h, mean ± SD
From the text: The experiment was repeated three times.

[5] = tested on: four cancer-cell lines; assay: In vitro antiproliferative assay (CCK-8), cell line not given; details: Homo sapiens, read-out: IC50 (antiproliferative activity)

Molecule	IC50 ([1]; CCK-8, 48 h, mean ± SD)	IC50 ([2]; CCK-8, 48 h, mean ± SD)	IC50 ([3]; CCK-8, 48 h, mean ± SD)	IC50 [4]	IC50 ([1]; Homo sapiens, MCF7, 48 h)	IC50 ([2]; Homo sapiens, MDA-MB-231, 48 h)	IC50 ([3]; Homo sapiens, HepG2, 48 h)	IC50 [5]	IC50 ([4]; Homo sapiens, HeLa)
1-phenethyl-3-(2,2,2-trichloro-1-((2,6-dichloropyrimidin-4-yl)amino)ethyl)urea [Compound 17]	> 100 µM	25.2 ± 10.8 µM	> 100 µM	60 ± 7.55 µM					
1-phenethyl-3-(2,2,2-trichloro-1-((4,6-difluoropyrimidin-2-yl)amino)ethyl)urea [Compound 22]	24.8 ± 9.49 µM	27.81 ± 0.17 µM	26.13 ± 0.05 µM	31.9 ± 3.29 µM					
O=C(NC1CCCCC1)NC(Nc1ncccn1)C(Cl)(Cl)Cl (stereo not shown) [Compound 3, 1-cyclohexyl-3-(2,2,2-trichloro-1-(pyrimidin-2-ylamino)ethyl)urea]					> 100 µM	> 100 µM	> 100 µM	> 80 µM	> 100 µM
CCNC(=O)NC(Nc1ncccn1)C(Cl)(Cl)Cl (stereo not shown) [Compound 5, 1-ethyl-3-(2,2,2-trichloro-1-(pyrimidin-2-ylamino)ethyl)urea]					> 100 µM	> 100 µM	> 100 µM	> 80 µM	> 100 µM
O=C(NC(Nc1ncccn1)C(Cl)(Cl)Cl)NS(=O)(=O)c1ccccc1 (stereo not shown) [Compound 6, N-((2,2,2-trichloro-1-(pyrimidin-2-ylamino)ethyl)carbamoyl)benzenesulfonamide]					> 100 µM	> 100 µM	> 100 µM	> 80 µM	> 100 µM
Cc1ccc(S(=O)(=O)NC(=O)NC(Nc2nccc(C(F)(F)F)n2)C(Cl)(Cl)Cl)cc1 (stereo not shown) [Compound 8, 4-methyl-N-((2,2,2-trichloro-1-((4-(trifluoromethyl)pyrimidin-2-yl)amino)ethyl)carbamoyl)benzenesulfonamide]					> 100 µM	> 100 µM	> 100 µM		> 100 µM
O=C(NCCc1ccccc1)NC(Nc1ncc(Cl)cn1)C(Cl)(Cl)Cl (stereo not shown) [Compound 9, 1-phenethyl-3-(2,2,2-trichloro-1-((5-chloropyrimidin-2-yl)amino)ethyl)urea]					> 100 µM	> 100 µM	> 100 µM		> 100 µM
Cc1c(Cl)nc(NC(NC(=O)NS(=O)(=O)c2ccccc2)C(Cl)(Cl)Cl)nc1Cl (stereo not shown) [Compound 11, N-((2,2,2-trichloro-1-((4,6-dichloro-5-methylpyrimidin-2yl)amino)ethyl)carbamoyl)benzenesulfonamide]					> 100 µM	> 100 µM	> 100 µM		> 100 µM
N#Cc1cnc(NC(NC(=O)NCCc2ccccc2)C(Cl)(Cl)Cl)nc1 (stereo not shown) [Compound 15, 1-phenethyl-3-(2,2,2-trichloro-1-((5-cyanopyrimidin-2-yl)amin-o)ethyl)urea]					> 100 µM	> 100 µM	> 100 µM		> 100 µM
O=C(NCCc1ccccc1)NC(Nc1nc(Cl)cc(Cl)n1)C(Cl)(Cl)Cl (stereo not shown) [Compound 18, 1-phenethyl-3-(2,2,2-trichloro-1-((4,6-dichloropyrimidin-2-yl)amino)ethyl)urea, sodium salt]					33.8 ± 1.91 µM	50.4 ± 3.07 µM	30.59 ± 0.1 µM		36.7 ± 1.23 µM
Nc1c(Cl)nc(NC(NC(=O)OCCc2ccccc2)C(Cl)(Cl)Cl)nc1Cl (stereo not shown) [Compound 19, Phenethyl(1-((5-amino-4,6-dichloropyrimidin-2-yl)amino)-2,2,2-trichloroethyl)carbamate]					23.5 ± 4.17 µM	68.9 ± 2.67 µM	27.8 ± 1.85 µM		34.04 ± 0.02 µM
Cc1cnc(NC(NC(=O)NCCc2ccccc2)C(Cl)(Cl)Cl)nc1 (stereo not shown) [Compound 23, 1-phenethyl-3-(2,2,2-trichloro-1-((5-methylpyrimidin-2-yl)ami-no)ethyl)urea]					60.4 ± 3.91 µM	> 100 µM	67.9 ± 6.74 µM		> 100 µM
Cc1ncc([N+](=O)[O-])n1CCNC(=O)NC(n1cnc2c(N)nc(F)nc21)C(Cl)(Cl)Cl (stereo not shown) [Compound 29, 1-(1-(6-amino-2-fluoro-9H-purin-9-yl)-2,2,2-trichloroethyl)-3-(2-(2-methyl-5-nitro-1H-imidazol-1-yl)ethyl)urea]					0.23 ± 0.09 µM	0.37 ± 0.07 µM	0.13 ± 0.05 µM		0.08 ± 0.01 µM
O=C(NCCc1ccccc1)NC(NNc1nccc(C(F)(F)F)n1)C(Cl)(Cl)Cl (stereo not shown) [Compound 30, 1-phenethyl-3-(2,2,2-trichloro-1-(2-(4-(trifluoromethyl)pyrimi-din-2-yl)hydrazinyl)ethyl)urea]					72.4 ± 30.9 µM	73 ± 42.7 µM	58 ± 10.6 µM		> 100 µM

Second part, the molecule after the results:

IC50 ([1]; CCK-8, 48 h, mean ± SD)	IC50 ([2]; CCK-8, 48 h, mean ± SD)	IC50 ([3]; CCK-8, 48 h, mean ± SD)	IC50 [4]	IC50 ([1]; Homo sapiens, MCF7, 48 h)	IC50 ([2]; Homo sapiens, MDA-MB-231, 48 h)	IC50 ([3]; Homo sapiens, HepG2, 48 h)	IC50 [5]	IC50 ([4]; Homo sapiens, HeLa)	Molecule
				> 100 µM	> 100 µM	> 100 µM	> 80 µM	> 100 µM	Cc1ncc([N+](=O)[O-])n1CCNC(=O)NC(Nc1ncccn1)C(Cl)(Cl)Cl (stereo not shown) [Compound 1, 1-(2-(2-methyl-5-nitro-1H-imidazol-1-yl)ethyl)-3-(2,2,2-trichloro-1-(pyrimidin-2-ylamino)ethyl)urea]
				79.3 ± 20.3 µM	> 100 µM	66.3 ± 1.91 µM		86.7 ± 4.25 µM	O=C(NCCc1ccccc1)NC(Nc1ncccn1)C(Cl)(Cl)Cl (stereo not shown) [Compound 2, 1-phenethyl-3-(2,2,2-trichloro-1-(pyrimidin-2-ylamino)ethyl)urea]
				> 100 µM	> 100 µM	> 100 µM	> 80 µM	> 100 µM	O=C(NCCN1CCOCC1)NC(Nc1ncccn1)C(Cl)(Cl)Cl (stereo not shown) [Compound 4, 1-(2-morpholinoethyl)-3-(2,2,2-trichloro-1-(pyrimidin-2ylamino)ethyl)urea]
				21.3 ± 4.52 µM	34.7 ± 1.23 µM	20.7 ± 3.6 µM	< 40 µM	34.2 ± 5.16 µM	O=C(NCCc1ccccc1)NC(Nc1nccc(C(F)(F)F)n1)C(Cl)(Cl)Cl (stereo not shown) [Compound 7, 1-phenethyl-3-(2,2,2-trichloro-1-((4-(trifluoromethyl)pyrimidin-2-yl)aminno16)ethyl)urea]
				> 100 µM	> 100 µM	> 100 µM		> 100 µM	O=C(NC(Nc1ncc(Cl)cn1)C(Cl)(Cl)Cl)NS(=O)(=O)c1ccccc1 (stereo not shown) [Compound 10, N-((2,2,2-trichloro-1-((5-chloropyrimidin-2yl)amino)ethyl)carbamoyl)benzenesul fonamide]
				27.7 ± 2.13 µM	> 100 µM	27.1 ± 5.27 µM		43.5 ± 20.4 µM	Cc1c(Cl)nc(NC(NC(=O)NCCc2ccccc2)C(Cl)(Cl)Cl)nc1Cl (stereo not shown) [Compound 12, 1-phenethyl-3-(2,2,2-trichloro-1-((4,6-dichloro-5-methylpyrimidin-2-yl)amino)ethyl)urea]
				> 100 µM	> 100 µM	> 100 µM		> 100 µM	CCCNC(=O)NC(Nc1ncc([N+](=O)[O-])cn1)C(Cl)(Cl)Cl (stereo not shown) [Compound 13, 1-propyl-3-(2,2,2-trichloro-1-((5-nitropyrimidin-2-yl)amino)ethyl)urea]
				44.7 ± 7.62 µM	> 100 µM	51.8 ± 2.43 µM		79.6 ± 45.2 µM	O=C(NCCc1ccccc1)NC(Nc1ncc([N+](=O)[O-])cn1)C(Cl)(Cl)Cl (stereo not shown) [Compound 14, 1-phenethyl-3-(2,2,2-trichloro-1-((5-nitropyrimidin-2-yl)amin-o)ethyl)urea]
				> 100 µM	> 100 µM	> 100 µM		> 100 µM	O=C(NCCc1ccccc1)NC(Nc1ncc(F)cn1)C(Cl)(Cl)Cl (stereo not shown) [Compound 16, 1-phenethyl-3-(2,2,2-trichloro-1-((5-fluoropyrimidin-2-yl)amin-no)ethyl)urea]
				> 100 µM	> 100 µM	> 100 µM		> 100 µM	Nc1c(Cl)nc(NC(NC(=O)NCCN2CCOCC2)C(Cl)(Cl)Cl)nc1Cl (stereo not shown) [Compound 21, 1-(1-((5-amino-4,6-dichloropyrimidin-2-yl)-l4-azanyl)-2,2,2-trichloroethyl)-3-(2-morpholinoethyl)urea]
				29.2 ± 3.46 µM	58.6 ± 18.4 µM	32.4 ± 5 µM		> 100 µM	COC(=O)c1cnc(NC(NC(=O)NCCc2ccccc2)C(Cl)(Cl)Cl)nc1C (stereo not shown) [Compound 24, Methyl-4-methyl-2-((2,2,2-trichloro-1-(3-phenethylureido)eth-yl)amino)pyrimidine-5-carboxylate]
				37.3 ± 1.63 µM	52.2 ± 0.63 µM	32.5 ± 6.31 µM		41.6 ± 8.81 µM	Nc1nc(Cl)cc(NC(NC(=O)NCCc2ccccc2)C(Cl)(Cl)Cl)n1 (stereo not shown) [Compound 25, 1-(1-((2-amino-6-chloropyrimidin-4-yl)amino)-2,2,2-trichloroe-thyl)-3-phenethylurea]
				44.8 ± 8.78 µM	61.6 ± 11.1 µM	32.8 ± 3.94 µM		44.7 ± 4.6 µM	Nc1cc(Cl)nc(NC(NC(=O)NCCc2ccccc2)C(Cl)(Cl)Cl)n1 (stereo not shown) [Compound 26, 1-(1-((4-amino-6-chloropyrimidin-2-yl)amino)-2,2,2-trichloroe-thyl)-3-phenethylurea]
				0.41 ± 0.05 µM	0.61 ± 0.12 µM	0.28 ± 0.13 µM		0.17 ± 0.08 µM	Nc1nc(F)nc2c1ncn2C(NC(=O)NCCc1ccccc1)C(Cl)(Cl)Cl (stereo not shown) [Compound 28, 1-(1-(6-amino-2-fluoro-9H-purin-9-yl)-2,2,2-trichloroethyl)-3-phenethylurea]
